Results: patent publication US20240270809A1, “ORAL GLP RECEPTOR AGONISTS” (priority 2020, published 2024)
Positions of bridges follow the written chain, without caps; N, C: chain ends. Non-standard residues stand in square brackets, D forms with d. Residues, ends and D or L forms follow the SMILES beside them. *: point of attachment. Malonyl(2,2-Me2,histaminyl) = CC(C)(C(=O)NCCc1cnc[nH]1)C(=O)*; Ala(1H-tetrazol-5-yl) = N[C@@H](Cc1nnn[nH]1)C(=O)O; αMePhe(2-F) = C[C@](N)(Cc1ccccc1F)C(=O)O; αMeL = CC(C)C[C@](C)(N)C(=O)O; Nle = CCCC[C@H](N)C(=O)O; Aib = CC(C)(N)C(=O)O; Alloc = C=CCOC(=O)*

Columns and labels:
human GLP2 receptor = molecular target: T1, human GLP2 receptor (Homo sapiens, UniProt O95838); assay: cAMP accumulation assay, functional agonism of human GLP2 receptor; assay type: cell-based; conditions: HEK cells infected with human GLP2 receptor BacMam virus, HTRF cAMP; for Emax: HEK293, read-out: Human GLP-2R agonist cAMP Emax; for EC50: read-out: Human GLP-2R agonist cAMP pEC50 (converted)
T1 construct: expressed in transfected cells; host or cells: HEK cells, BacMam virus transduction
T1 sequence (O95838 1-553): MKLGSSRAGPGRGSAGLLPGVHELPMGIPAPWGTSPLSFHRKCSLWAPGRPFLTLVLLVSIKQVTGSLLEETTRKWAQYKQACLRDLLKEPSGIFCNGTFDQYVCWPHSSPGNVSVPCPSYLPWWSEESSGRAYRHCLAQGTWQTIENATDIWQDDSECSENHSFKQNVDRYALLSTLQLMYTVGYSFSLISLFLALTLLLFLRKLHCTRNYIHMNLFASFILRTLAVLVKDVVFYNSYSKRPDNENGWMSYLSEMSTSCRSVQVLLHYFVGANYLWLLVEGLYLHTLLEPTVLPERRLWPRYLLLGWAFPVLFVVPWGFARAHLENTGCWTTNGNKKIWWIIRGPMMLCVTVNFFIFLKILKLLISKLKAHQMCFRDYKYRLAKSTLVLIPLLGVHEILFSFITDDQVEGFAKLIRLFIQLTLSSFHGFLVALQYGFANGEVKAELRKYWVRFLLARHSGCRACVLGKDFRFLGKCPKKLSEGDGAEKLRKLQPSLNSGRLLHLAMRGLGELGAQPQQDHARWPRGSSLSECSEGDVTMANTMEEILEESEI
Protocol: (§1) CAMP production upon agonist stimulation of human GLP2 or GLP1 receptor was assessed utilizing HiRange cAMP kit (Cisbio). In brief, HEK cells were infected with either human GLP2 or GLP1 receptor BacMam virus for 24 hours and frozen for later use in the assay. […] Cells were prepared in the assay buffer (HBSS (Lonza) supplemented with 0.5 mM IBMX (Tocris)). After 45 min incubation at 37° C., the reaction was stopped by addition of the HTRF detection reagents in the lysis buffer provided in the kit.

human GLP1 receptor = molecular target: T2, human GLP1 receptor (Homo sapiens, UniProt P43220); assay: cAMP accumulation assay, functional agonism of human GLP1 receptor; assay type: cell-based; conditions: HEK cells infected with human GLP1 receptor BacMam virus, HTRF cAMP; for Emax: HEK293, read-out: Human GLP-1R agonist cAMP Emax; for EC50: read-out: Human GLP-1R agonist cAMP pEC50 (converted)
T2 construct: expressed in transfected cells; host or cells: HEK cells, BacMam virus transduction
T2 sequence (P43220 24-463): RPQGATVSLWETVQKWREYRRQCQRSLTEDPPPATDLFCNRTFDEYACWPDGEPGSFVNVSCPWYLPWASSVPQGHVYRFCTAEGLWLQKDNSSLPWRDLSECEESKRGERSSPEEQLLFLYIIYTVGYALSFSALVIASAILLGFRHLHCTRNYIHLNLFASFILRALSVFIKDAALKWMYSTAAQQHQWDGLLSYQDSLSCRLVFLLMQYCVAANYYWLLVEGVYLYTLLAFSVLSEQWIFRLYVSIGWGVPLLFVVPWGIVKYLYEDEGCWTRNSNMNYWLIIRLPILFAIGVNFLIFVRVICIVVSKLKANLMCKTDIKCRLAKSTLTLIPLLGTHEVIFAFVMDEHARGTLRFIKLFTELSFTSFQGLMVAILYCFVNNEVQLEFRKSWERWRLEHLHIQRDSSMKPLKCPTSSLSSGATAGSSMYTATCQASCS
Protocol: as §1

| Structure (SMILES) | Emax (human GLP2 receptor) | Emax (human GLP1 receptor) | EC50 (human GLP2 receptor) | EC50 (human GLP1 receptor) |
| --- | --- | --- | --- | --- |
| CCCC[C@H](NC(=O)[C@H](CCC(=O)O)NC(=O)[C@@H]1CC(=O)NCCCC[C@H](NC(=O)[C@H](CC(=O)O)NC(=O)C(C)(C)NC(=O)[C@@H](N)Cc2c[nH]cn2)C(=O)N[C@@H](CO)C(=O)N[C@@H](Cc2ccccc2)C(=O)N[C@@H](CO)C(=O)N1)C(=O)N[C@H](Cc1ccccc1)C(=O)N[C@H]1CCC(=O)NCCCC[C@@H](C(=O)N[C@@H](CCCCN)C(=O)N[C@@H](C)C(=O)N[C@@H](C)C(=O)NC(C)(C)C(=O)N[C@@H](CC(=O)O)C(=O)N[C@@H](Cc2ccccc2)C(=O)N[C@H](C(=O)N[C@H]2CCC(=O)NCCCC[C@@H](C(=O)N[C@H](C(=O)N[C@@H](CCCCN)C(N)=O)[C@@H](C)O)NC(=O)[C@H]([C@@H](C)CC)NC(=O)[C@H](CC(C)C)NC(=O)[C@H](Cc3c[nH]c4ccccc34)NC2=O)[C@@H](C)CC)NC(=O)[C@H](CC(=O)O)NC(=O)[C@H](CC(C)C)NC(=O)[C@H]([C@@H](C)CC)NC1=O [Example 5] (H-H[Aib]DKSFSDE[Nle][dF]EILDKKAA[Aib]DFIEWLIKTK-NH2; lactam 4-8, 12-16, 24-28 (inferred); N-terminus and C-terminus assumed) | 104% | 92.5% | – | – |
| CCCC[C@@H]1NC(=O)[C@H](CCC(=O)O)NC(=O)[C@@H](NC(=O)[C@H](CO)NC(=O)[C@H](Cc2ccccc2)NC(=O)[C@H](CO)NC(=O)CNC(=O)[C@H](Cc2nn[nH]n2)NC(=O)C(C)(C)C(=O)NCCc2c[nH]cn2)CCCCNC(=O)C[C@@H](C(=O)N[C@H](C(=O)N[C@@H](CC(C)C)C(=O)N[C@@H](CC(=O)O)C(=O)N[C@H]2CCC(=O)NCCCC[C@@H](C(=O)N[C@@H](CC(=O)O)C(=O)N[C@@H](Cc3ccccc3)C(=O)N[C@H](C(=O)N[C@@H](CC(N)=O)C(=O)N[C@@H](Cc3c[nH]c4ccccc34)C(=O)N[C@@H](CC(C)C)C(=O)N[C@H](C(=O)N[C@@H](CCC(N)=O)C(=O)N[C@H](C(=O)N[C@H]3CCC(=O)NCCCC[C@@H](C(N)=O)NC(=O)[C@H]([C@@H](C)O)NC(=O)[C@H]([C@@H](C)CC)NC3=O)[C@@H](C)O)[C@@H](C)CC)[C@@H](C)CC)NC(=O)C(C)(C)NC(=O)C(C)(C)NC(=O)[C@H](CCCCN)NC2=O)[C@@H](C)CC)NC(=O)[C@@H](Cc2ccccc2)NC1=O [Example 16] ({Malonyl(2,2-Me2,histaminyl)}-[Ala(1H-tetrazol-5-yl)]GSFSKE[Nle][dF]DILDEK[Aib][Aib]KDFINWLIQTEITK-NH2; lactam 6-10, 14-18, 28-31; C-terminus assumed) | 104% | 94.1% | 0.251 nM | 0.631 nM |
| C=CCOC(=O)NCCCC[C@@H]1NC(=O)[C@@H](NC(=O)[C@H](CC(=O)O)NC(=O)[C@H](CC(C)C)NC(=O)[C@@H](NC(=O)[C@@H]2CC(=O)NCCCC[C@H](NC(=O)[C@H](CO)NC(=O)[C@H](Cc3ccccc3)NC(=O)[C@H](CO)NC(=O)CNC(=O)[C@H](Cc3nn[nH]n3)NC(=O)C(C)(C)C(=O)NCCc3c[nH]cn3)C(=O)N[C@@H](CCC(=O)O)C(=O)N[C@@H](CCCC)C(=O)N[C@H](Cc3ccccc3)C(=O)N2)[C@@H](C)CC)CCC(=O)NCCCC[C@@H](C(=O)N[C@@H](CC(=O)O)C(=O)N[C@@H](Cc2ccccc2)C(=O)N[C@H](C(=O)N[C@@H](CC(N)=O)C(=O)N[C@@H](Cc2c[nH]c3ccccc23)C(=O)N[C@@H](CC(C)C)C(=O)N[C@H](C(=O)N[C@@H](CCC(N)=O)C(=O)N[C@H](C(=O)N[C@H]2CCC(=O)NCCCC[C@@H](C(N)=O)NC(=O)[C@H]([C@@H](C)O)NC(=O)[C@H]([C@@H](C)CC)NC2=O)[C@@H](C)O)[C@@H](C)CC)[C@@H](C)CC)NC(=O)[C@H](C)NC(=O)[C@H](C)NC1=O [Example 23] ({Malonyl(2,2-Me2,histaminyl)}-[Ala(1H-tetrazol-5-yl)]GSFSKE[Nle][dF]DILDEK(Alloc)AAKDFINWLIQTEITK-NH2; lactam 6-10, 14-18, 28-31 (inferred); C-terminus assumed) | 102% | 94.3% | 0.0251 nM | 0.794 nM |

Continued, values first:

| Emax (human GLP2 receptor) | Emax (human GLP1 receptor) | EC50 (human GLP2 receptor) | EC50 (human GLP1 receptor) | Structure (SMILES) |
| --- | --- | --- | --- | --- |
| 103% | 96.8% | 0.00794 nM | 0.2 nM | CCCC[C@@H]1NC(=O)[C@H](CCC(=O)O)NC(=O)[C@@H](NC(=O)[C@H](CO)NC(=O)[C@H](Cc2ccccc2)NC(=O)[C@H](CO)NC(=O)[C@@H](C)NC(=O)[C@H](Cc2nn[nH]n2)NC(=O)C(C)(C)C(=O)NCCc2c[nH]cn2)CCCCNC(=O)C[C@@H](C(=O)N[C@@](C)(CC(C)C)C(=O)N[C@@H](CC(C)C)C(=O)N[C@@H](CC(=O)O)C(=O)N[C@H]2CCC(=O)NCCCC[C@@H](C(=O)N[C@@H](CC(=O)O)C(=O)N[C@@H](Cc3ccccc3)C(=O)N[C@H](C(=O)N[C@@H](CC(N)=O)C(=O)N[C@@H](Cc3c[nH]c4ccccc34)C(=O)N[C@@H](CC(C)C)C(=O)N[C@H](C(=O)N[C@@H](CCC(N)=O)C(=O)N[C@H]3CCC(=O)NCCCC[C@@H](C(N)=O)NC(=O)[C@H]([C@@H](C)O)NC(=O)[C@H]([C@@H](C)CC)NC(=O)[C@H](CCCCN)NC3=O)[C@@H](C)CC)[C@@H](C)CC)NC(=O)[C@H](C)NC(=O)[C@H](C)NC(=O)[C@H](CCCCN)NC2=O)NC(=O)[C@@H](Cc2ccccc2)NC1=O [Example 24] ({Malonyl(2,2-Me2,histaminyl)}-[Ala(1H-tetrazol-5-yl)][dA]SFSKE[Nle][dF]D[αMeL]LDEKAAKDFINWLIQEKITK-NH2; lactam 6-10, 14-18, 27-31 (inferred); C-terminus assumed) |
| 103% | 97.6% | 0.0251 nM | 0.0316 nM | CCCC[C@@H]1NC(=O)[C@H](CCC(=O)O)NC(=O)[C@@H](NC(=O)[C@H](CO)NC(=O)[C@](C)(Cc2ccccc2F)NC(=O)[C@H](CO)NC(=O)[C@@H](C)NC(=O)[C@H](CC(=O)O)NC(=O)C(C)(C)C(=O)NCCc2c[nH]cn2)CCCCNC(=O)C[C@@H](C(=O)N[C@@](C)(CC(C)C)C(=O)N[C@@H](CC(C)C)C(=O)N[C@@H](CC(=O)O)C(=O)N[C@H]2CCC(=O)NCCCC[C@@H](C(=O)N[C@@H](CC(=O)O)C(=O)N[C@@H](Cc3ccccc3)C(=O)N[C@H](C(=O)N[C@@H](CC(N)=O)C(=O)N[C@@H](Cc3c[nH]c4ccccc34)C(=O)N[C@@H](CC(C)C)C(=O)N[C@H](C(=O)N[C@@H](CCC(N)=O)C(=O)N[C@H]3CCC(=O)NCCCC[C@@H](C(N)=O)NC(=O)[C@H]([C@@H](C)O)NC(=O)[C@H]([C@@H](C)CC)NC(=O)[C@H](CCCCN)NC3=O)[C@@H](C)CC)[C@@H](C)CC)NC(=O)[C@H](C)NC(=O)[C@H](C)NC(=O)[C@H](CCCCN)NC2=O)NC(=O)[C@@H](Cc2ccccc2)NC1=O [Example 25] ({Malonyl(2,2-Me2,histaminyl)}-D[dA]S[αMePhe(2-F)]SKE[Nle][dF]D[αMeL]LDEKAAKDFINWLIQEKITK-NH2; lactam 6-10, 14-18, 27-31 (inferred); C-terminus assumed) |
| 99.6% | 96% | 0.316 nM | 0.0794 nM | CCCC[C@H](NC(=O)[C@H](CCC(=O)O)NC(=O)[C@@H]1CC(=O)NCCCC[C@H](NC(=O)[C@H](CCC(=O)O)NC(=O)C(C)(C)NC(=O)[C@@H](N)Cc2c[nH]cn2)C(=O)N[C@@H](CO)C(=O)N[C@@H](Cc2ccccc2)C(=O)N[C@@H](CO)C(=O)N1)C(=O)N[C@H](Cc1ccccc1)C(=O)N[C@H](C(=O)N[C@@](C)(CC(C)C)C(=O)N[C@@H](CC(C)C)C(=O)N[C@@H](CC(=O)O)C(=O)N[C@H]1CCC(=O)NCCCC[C@@H](C(=O)N[C@@H](CC(=O)O)C(=O)N[C@@H](Cc2ccccc2)C(=O)N[C@H](C(=O)N[C@H]2CCC(=O)NCCCC[C@@H](C(=O)N[C@H](C(=O)N[C@@H](CCCCN)C(N)=O)[C@@H](C)O)NC(=O)[C@H]([C@@H](C)CC)NC(=O)[C@H](CC(C)C)NC(=O)[C@H](Cc3c[nH]c4ccccc34)NC2=O)[C@@H](C)CC)NC(=O)[C@H](C)NC(=O)[C@H](C)NC(=O)[C@H](CCCCN)NC1=O)[C@@H](C)O [Example 28] (H-H[Aib]EKSFSDE[Nle][dF]T[αMeL]LDEKAAKDFIEWLIKTK-NH2; lactam 4-8, 16-20, 24-28 (inferred); C-terminus assumed) |
